Results reported in patent US20240208968A1, “ALPHA V BETA 6 AND ALPHA V BETA 1 INTEGRIN INHIBITORS AND USES THEREOF” (DiCE Molecules SV, Inc., priority 2021, published 2024).

Columns and labels:
αvβ6 = αvβ6 (Homo sapiens, UniProt P06756+P18564); test: Solid Phase Integrin αvβ6 Assay; assay type: binding
In short: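 Inhibition of αvβ6 binding to immobilized recombinant TGFb1-LAP (1 μg/mL coating), 1 h at room temperature with 1 mM MnCl2 in BSA/TBST buffer, integrin diluted to 0.2 μg/mL before addition. Streptavidin-HRP/TMB read-out; four-parameter logistic fitting gave IC50.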

αvβ1 = αvβ1 (Homo sapiens, UniProt P05556+P06756); test: Solid Phase Integrin αvβ1 Assay; assay type: binding
Sequence of αvβ1 (P06756 31-992 limits assumed): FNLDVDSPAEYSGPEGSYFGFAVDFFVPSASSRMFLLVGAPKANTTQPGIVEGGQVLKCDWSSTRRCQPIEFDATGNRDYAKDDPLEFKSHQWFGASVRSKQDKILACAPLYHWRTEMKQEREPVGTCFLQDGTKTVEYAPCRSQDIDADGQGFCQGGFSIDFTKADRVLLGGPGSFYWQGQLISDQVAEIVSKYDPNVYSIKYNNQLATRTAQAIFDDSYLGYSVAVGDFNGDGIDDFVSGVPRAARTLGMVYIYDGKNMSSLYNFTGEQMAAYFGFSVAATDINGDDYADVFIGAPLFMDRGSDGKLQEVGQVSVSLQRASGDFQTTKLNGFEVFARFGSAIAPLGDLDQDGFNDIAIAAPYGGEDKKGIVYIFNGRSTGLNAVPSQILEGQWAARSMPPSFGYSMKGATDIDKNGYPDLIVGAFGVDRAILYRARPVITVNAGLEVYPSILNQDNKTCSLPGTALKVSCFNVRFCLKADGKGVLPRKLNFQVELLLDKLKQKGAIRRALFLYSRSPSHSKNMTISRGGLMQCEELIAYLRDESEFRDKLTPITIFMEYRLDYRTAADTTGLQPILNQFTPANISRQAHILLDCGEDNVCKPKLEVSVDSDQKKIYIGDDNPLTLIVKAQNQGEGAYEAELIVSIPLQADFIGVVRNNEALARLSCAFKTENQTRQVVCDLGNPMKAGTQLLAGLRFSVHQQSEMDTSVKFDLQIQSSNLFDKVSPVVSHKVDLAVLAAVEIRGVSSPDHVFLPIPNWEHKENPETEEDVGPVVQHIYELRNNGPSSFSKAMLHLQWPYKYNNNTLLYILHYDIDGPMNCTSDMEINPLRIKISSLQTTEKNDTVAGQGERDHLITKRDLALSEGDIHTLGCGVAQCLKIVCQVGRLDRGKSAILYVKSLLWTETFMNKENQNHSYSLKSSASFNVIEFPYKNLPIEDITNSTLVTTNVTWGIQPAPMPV
Sequence of αvβ1 (P05556 21-728 limits assumed): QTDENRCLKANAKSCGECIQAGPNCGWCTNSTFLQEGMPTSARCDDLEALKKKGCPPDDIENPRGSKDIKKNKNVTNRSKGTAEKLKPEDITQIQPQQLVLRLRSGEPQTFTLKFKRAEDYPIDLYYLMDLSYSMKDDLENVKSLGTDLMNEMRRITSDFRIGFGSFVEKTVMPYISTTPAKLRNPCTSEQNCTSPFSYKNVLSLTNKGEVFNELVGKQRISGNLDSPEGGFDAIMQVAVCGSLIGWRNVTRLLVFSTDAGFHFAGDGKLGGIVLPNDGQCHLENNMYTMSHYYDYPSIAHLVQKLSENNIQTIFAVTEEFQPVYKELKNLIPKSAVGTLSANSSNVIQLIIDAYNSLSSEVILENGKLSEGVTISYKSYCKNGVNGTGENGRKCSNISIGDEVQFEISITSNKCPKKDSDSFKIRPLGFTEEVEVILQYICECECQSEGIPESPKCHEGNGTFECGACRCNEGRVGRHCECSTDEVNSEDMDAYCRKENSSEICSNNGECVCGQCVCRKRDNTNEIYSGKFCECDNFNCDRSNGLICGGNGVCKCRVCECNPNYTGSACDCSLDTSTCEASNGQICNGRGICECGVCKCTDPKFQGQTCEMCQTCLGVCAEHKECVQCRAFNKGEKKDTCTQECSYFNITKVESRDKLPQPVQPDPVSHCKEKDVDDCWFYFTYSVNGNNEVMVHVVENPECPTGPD
In short: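 Compound competes for αvβ1 binding to immobilized TGFb1-LAP (1 µg/mL coat) in Mn2+ (1 mM MnCl2), 2% BSA binding buffer over 90 min at room temperature, integrin added at 0.2 µg/mL. Read-out: streptavidin-HRP/TMB; IC50 from Levenberg-Marquardt four-parameter fit.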

Sequence of αvβ6 (P06756 31-992 limits assumed): as the sequence (P06756 31-992 limits assumed) above
Sequence of αvβ6 (P18564 22-707 limits assumed): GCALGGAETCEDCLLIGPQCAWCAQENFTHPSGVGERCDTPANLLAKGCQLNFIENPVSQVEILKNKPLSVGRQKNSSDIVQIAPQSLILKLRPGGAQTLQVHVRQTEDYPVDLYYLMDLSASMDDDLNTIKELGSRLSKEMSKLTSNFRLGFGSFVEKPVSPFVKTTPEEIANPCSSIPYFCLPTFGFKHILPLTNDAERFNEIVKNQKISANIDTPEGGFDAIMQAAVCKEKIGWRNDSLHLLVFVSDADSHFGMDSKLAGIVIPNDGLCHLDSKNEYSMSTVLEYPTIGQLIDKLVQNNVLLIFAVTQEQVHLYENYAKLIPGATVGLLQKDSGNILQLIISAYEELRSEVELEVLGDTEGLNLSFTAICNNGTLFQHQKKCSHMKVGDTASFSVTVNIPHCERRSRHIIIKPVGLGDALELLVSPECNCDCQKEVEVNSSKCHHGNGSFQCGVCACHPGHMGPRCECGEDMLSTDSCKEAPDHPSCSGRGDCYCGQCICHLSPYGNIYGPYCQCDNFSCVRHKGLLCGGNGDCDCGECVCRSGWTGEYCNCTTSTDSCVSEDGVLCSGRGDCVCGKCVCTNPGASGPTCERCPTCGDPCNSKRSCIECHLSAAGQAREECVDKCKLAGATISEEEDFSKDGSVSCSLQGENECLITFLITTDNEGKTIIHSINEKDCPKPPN

SMILES	IC50 (αvβ6)	IC50 (αvβ1)
O=C(O)C[C@@H](CO[C@@H]1CCCN(CCc2ccc3c(n2)NCCC3)C1)c1ccccc1 [Compound 354]	> 1000 nM	> 1000 nM
O=C(O)C[C@@H](CO[C@@H]1CCCN(Cc2ccc3c(n2)NCCC3)C1)c1ccccc1 [Compound 355]	> 1000 nM	100 to 1000 nM
O=C(O)C[C@H](CO[C@@H]1CCCN(Cc2ccc3c(n2)NCCC3)C1)c1ccccc1 [Compound 356]	> 1000 nM	100 to 1000 nM
O=C(O)C[C@H](CO[C@@H]1CCCN(CCCCc2ccc3c(n2)NCCC3)C1)c1ccccc1 [Compound 357]	100 to 1000 nM	100 to 1000 nM
O=C(O)C[C@@H](CO[C@@H]1CCCN(CCCCc2ccc3c(n2)NCCC3)C1)c1ccccc1 [Compound 358]	> 1000 nM	< 100 nM
O=C(N[C@@H](CNC(=O)[C@@H]1CCCN(CCCc2ccc3c(n2)NCCC3)C1)C(=O)O)c1c(F)cc(N2CCOC[C@@H]2C(F)(F)F)cc1F [Compound 359]	< 100 nM	< 100 nM
O=C(NC[C@H](Nc1ccc(-c2ccccc2)nc1)C(=O)O)[C@@H]1CCCN(CCCc2ccc3c(n2)NCCC3)C1 [Compound 360]	< 100 nM	< 100 nM
O=C(NC[C@H](Nc1cncc(-c2ccccc2)c1)C(=O)O)[C@@H]1CCCN(CCCc2ccc3c(n2)NCCC3)C1 [Compound 361]	< 100 nM	< 100 nM
O=C(N[C@@H](CNC(=O)[C@@H]1CCCN(CCCc2ccc3c(n2)NCCC3)C1)C(=O)O)c1c(Cl)cccc1Cl [Compound 362]	< 100 nM	< 100 nM
O=C(N[C@@H](CNC(=O)[C@@H]1CCCN(CCCc2ccc3c(n2)NCCC3)C1)C(=O)O)c1cc(Cl)cc(Cl)c1 [Compound 363]	< 100 nM	< 100 nM
O=C(N[C@@H](CNC(=O)[C@@H]1CCCN(CCCc2ccc3c(n2)NCCC3)C1)C(=O)O)c1cc(Cl)ccc1Cl [Compound 364]	< 100 nM	< 100 nM
O=C(N[C@@H](CNC(=O)[C@@H]1CCCN(CCCc2ccc3c(n2)NCCC3)C1)C(=O)O)c1cccc(Cl)c1Cl [Compound 365]	< 100 nM	< 100 nM
O=C(N[C@@H](CNC(=O)[C@@H]1CCCN(CCCc2ccc3c(n2)NCCC3)C1)C(=O)O)C1CCC(F)(F)CC1 [Compound 366]	< 100 nM	< 100 nM
O=C(N[C@@H](CNC(=O)[C@@H]1CCCN(CCCc2ccc3c(n2)NCCC3)C1)C(=O)O)c1ccc(F)c(Cl)c1 [Compound 367]	< 100 nM	< 100 nM
O=C(N[C@@H](CNC(=O)[C@@H]1CCCN(CCCc2ccc3c(n2)NCCC3)C1)C(=O)O)c1ccc(Cl)c(Cl)c1 [Compound 368]	< 100 nM	< 100 nM
O=C(N[C@@H](CNC(=O)[C@@H]1CCCN(CCCc2ccc3c(n2)NCCC3)C1)C(=O)O)c1ccc(C2CC2)cc1 [Compound 369]	< 100 nM	< 100 nM
O=C(N[C@@H](CNC(=O)[C@@H]1CCCN(CCCc2ccc3c(n2)NCCC3)C1)C(=O)O)c1ccccc1C1CC1 [Compound 371]	< 100 nM	< 100 nM
O=C(N[C@@H](CNC(=O)[C@@H]1CCCN(CCCc2ccc3c(n2)NCCC3)C1)C(=O)O)c1ccc(Cl)cc1 [Compound 372]	< 100 nM	< 100 nM
O=C(N[C@@H](CNC(=O)[C@@H]1CCCN(CCCc2ccc3c(n2)NCCC3)C1)C(=O)O)c1cccc(Cl)c1 [Compound 373]	< 100 nM	< 100 nM
O=C(O)C[C@@H](NC(=O)[C@@H]1CCCN(CCCc2ccc3c(n2)NCCC3)C1)c1cnc2ccccc2n1 [Compound 374]	< 100 nM	100 to 1000 nM
O=C(NC[C@@H](Nc1ccc(-c2ccccc2)nc1)C(=O)O)[C@@H]1CCCN(CCCc2ccc3c(n2)NCCC3)C1 [Compound 375]	< 100 nM	< 100 nM

SMILES	IC50 (αvβ6)	IC50 (αvβ1)
O=C(NC[C@@H](Nc1cncc(-c2ccccc2)c1)C(=O)O)[C@@H]1CCCN(CCCc2ccc3c(n2)NCCC3)C1 [Compound 376]	< 100 nM	< 100 nM
O=C(O)CC(NC(=O)[C@@H]1CCCN(CCCc2ccc3c(n2)NCCC3)C1)c1cccc(O)c1 (stereo partly drawn) [Compound 377]	< 100 nM	< 100 nM
C[C@H]1CCN(CCCc2ccc3c(n2)NCCC3)C[C@H]1C(=O)N[C@@H](CC(=O)O)c1ccccc1 [Compound 378]	100 to 1000 nM	> 1000 nM
C[C@@H]1C[C@H](C(=O)N[C@@H](CC(=O)O)c2ccccc2)CN(CCCc2ccc3c(n2)NCCC3)C1 [Compound 379]	< 100 nM	< 100 nM
C[C@H]1C[C@H](C(=O)N[C@@H](CC(=O)O)c2ccccc2)CN(CCCc2ccc3c(n2)NCCC3)C1 [Compound 380]	< 100 nM	100 to 1000 nM
O=C(O)[C@@H](CCO[C@@H]1CCCN(Cc2ccc3c(n2)NCCC3)C1)NC(=O)C12CCC(CC1)CC2 [Compound 381]	< 100 nM	< 100 nM
O=C(O)[C@@H](CO[C@@H]1CCCN(CCCc2ccc3c(n2)NCCC3)C1)NC(=O)C12CCC(CC1)CC2 [Compound 382]	> 1000 nM	> 1000 nM
O=C(O)[C@@H](CCO[C@@H]1CCCN(CCc2ccc3c(n2)NCCC3)C1)NC(=O)C12CCC(CC1)CC2 [Compound 383]	100 to 1000 nM	< 100 nM
O=C(O)[C@@H](CCO[C@@H]1CCCN(CCCCc2ccc3c(n2)NCCC3)C1)NC(=O)C12CCC(CC1)CC2 [Compound 384]	> 1000 nM	> 1000 nM
O=C(O)[C@H](CCO[C@@H]1CCCN(CCCCc2ccc3c(n2)NCCC3)C1)Nc1ncnc2ccccc12 [Compound 385]	100 to 1000 nM	> 1000 nM
O=C(O)[C@H](CCO[C@@H]1CCCN(CCc2ccc3c(n2)NCCC3)C1)Nc1ncnc2ccccc12 [Compound 386]	> 1000 nM	> 1000 nM
O=C(O)[C@H](CCO[C@@H]1CCCN(Cc2ccc3c(n2)NCCC3)C1)Nc1ncnc2ccccc12 [Compound 387]	100 to 1000 nM	< 100 nM
O=C(O)[C@H](CO[C@@H]1CCCN(CCCc2ccc3c(n2)NCCC3)C1)Nc1ncnc2ccccc12 [Compound 388]	< 100 nM	100 to 1000 nM
O=C(O)[C@@H](CO[C@@H]1CCCN(Cc2ccc3c(n2)NCCC3)C1)c1ccccc1 [Compound 389]	> 1000 nM	> 1000 nM
O=C(O)C[C@@H](O[C@@H]1CCCN(Cc2ccc3c(n2)NCCC3)C1)c1ccccc1 [Compound 390]	> 1000 nM	> 1000 nM
O=C(O)C[C@@H](O[C@@H]1CCCN(CCCCc2ccc3c(n2)NCCC3)C1)c1ccccc1 [Compound 391]	> 1000 nM	> 1000 nM
O=C(O)C[C@H](O[C@@H]1CCCN(Cc2ccc3c(n2)NCCC3)C1)c1ccccc1 [Compound 392]	> 1000 nM	> 1000 nM
O=C(O)C[C@H](O[C@@H]1CCCN(CCCCc2ccc3c(n2)NCCC3)C1)c1ccccc1 [Compound 393]	> 1000 nM	> 1000 nM
O=C(O)[C@@H](CO[C@@H]1CCCN(CCCCc2ccc3c(n2)NCCC3)C1)c1ccccc1 [Compound 394]	> 1000 nM	> 1000 nM
O=C(O)[C@H](CO[C@@H]1CCCN(CCCCc2ccc3c(n2)NCCC3)C1)c1ccccc1 [Compound 395]	> 1000 nM	> 1000 nM
O=C(O)[C@H](CO[C@@H]1CCCN(Cc2ccc3c(n2)NCCC3)C1)c1ccccc1 [Compound 396]	> 1000 nM	> 1000 nM
